Laboratory results published in patent publication EP0305646B1, “3-Hydroxypyrid-4-ones and pharmaceutical compositions” (BRITISH TECHNOLOGY GROUP LIMITED, priority 1983, dated 1984).
Where two headings read alike, the source gives them in different places.

Key:
Horse spleen ferritin [1] = target: T1, Horse spleen ferritin (Equus caballus, UniProt P02791+Q8MIP0); test: Mobilisation of iron from ferritin (dialysis against a pyridone solution); type: biochemical; conditions: ferritin 10^-6 M, pH 7.4, 3 x 10^-3 M pyridone
T1 construct: Horse spleen ferritin (Sigma) was used without further purification; purchased Sigma; host or cells: horse spleen (tissue-derived)
Protocol: Horse spleen ferritin (Sigma) was used without further purification and its iron content was estimated spectrophotometrically at 420 nm. The ferritin solution in phosphate buffered saline (Dulbecco-OXOID, 10^-6 M, pH 7.4) was enclosed in a Visking dialysis tube and dialysed against a 3 x 10^-3 M buffered solution of one of various pyridones as indicated in Table 2. The absorption spectrum of the resulting iron (III) complex in the dialysis solution was recorded after 6 and 24 hours. For comparative purposes, the procedure was repeated using a blank control.
The results are shown in Table 2 where the percentage of ferritin-bound iron removed by the compound under test is shown. For comparative purposes, results reported in the literature for similar tests with 1 x 10^-3 M desferrioxamine (Crichton et al., J. Inorganic Biochem., 1980, 13, 305) and with 6 x 10^-3 M LICAMS (Tufano et al., Biochem. Biophys. Acta, 1981, 668, 420) are also given in the Table. It will be seen that the pyridone compounds are able to remove iron effectively from ferritin in contrast with desferrioxamine and LICAMS (although the latter will remove iron in the presence of ascorbic acid such a mixture is very difficult to manage clinically). […]

[2] = Affinity for iron (III) expressed as log Ksol; type: physicochemical; conditions: > 6.0 needed to remove iron from transferrin
Text: In order to solubilise iron (III) hydroxide, log Ksol must be greater than 0 and in order to remove iron from transferrin, log Ksol should be in excess of 6.0. The log Ksol values for 1,2-dimethyl-3-hydroxypyrid-4-one, by way of example, is 9.5, thus comparing favourably with those of the bidentate hydroxamates at about 4.0, of catechols at about 8.0, of desferrioxamine at 6.0, and of diethylenetriamine penta-acetic acid (DTPA) at 2.0. Moreover, the ability of the compounds to remove iron efficiently has been confirmed both by in vitro test and also by in vivo tests in mice. It is particularly significant that these latter tests are successful whether the compound is given intraperitoneally or orally by stomach tube, the compounds generally either being stable under acidic conditions or being converted thereby to acid stable active compounds.

Mice = test: In vivo iron binding capacity: excretion of 59Fe in iron dextran loaded mice; conditions: 10 mg per mouse, control = 100%
Protocol: Mice were injected intraperitoneally with iron dextran (2 mg) at weekly intervals over a four week period. Two weeks after the final injection, the mice were injected via the tail vein with ^59Fe lactoferrin (human lactoferrin, 1 mg per injection 2 µCi). The mice were then caged individually. After a ten day period, 1-acetyl-3-hydroxypyrid-2-one was administered to groups of 8 mice at 10 mg per mouse either intraperitoneally or intragastrically (in each case 3 of the mice received only one dose whilst 5 received 2 doses at a 24 hour interval). The excretion of iron was recorded at either 12 or 24 hourly intervals over a three day period before and a two day period after administration of the compound. For comparative purposes, the procedure was repeated with a blank control and with desferrioxamine, also at 10 mg per mouse (the intraperitoneally treated mice receiving one dose of desferrioxamine and the intragastrically treated mice two doses at a 24 hour interval).
The results are shown in Table 4, being given on the basis of the control representing 100% excretion, and illustrate the particular advantage of the pyridones as compared with desferrioxamine for oral administration the levels of iron excreted on intragastric administration being higher for all the pyridones tested than for desferroxamine. […] However, this is not the case here, the large SD values being a consequence of the large range among the positive responses.

[3] = Partition coefficient Kpart between n-octanol and aqueous tris hydrochloride, by spectrophotometry; conditions: n-octanol / tris hcl, pH 7.4
Protocol: The partition coefficient Kpart being the ratio (concentration of compound in n-octanol)/)concentration of compound in aqueous phase) on partition between n-octanol and aqueous tris hydrochloride (20 mM, pH 7.4), is measured by spectrophotometry at 20°C for various of the compounds of the previous Examples and for their 3:1 iron(III) complexes at (10^-4M by spectrophotometry. The solutions of the complexes are either produced by dissolving the pre-formed complex in the aqueous tris hydrochloride or are prepared in situ in the buffer by the admixture of a 3:1 molar ratio of the pyridone and ferric chloride, the pH thereafter being readjusted to 7.4 if necessary (the same product will be obtained in the buffer solution irrespective of whether the pyridone used is in a salt form or not). Acid washed glassware is used throughout and, following mixing of 5 ml of the 10^-4M aqueous solution with 5 ml n-octanol for 1 minute, the aqueous n-octanol mixture is centrifuged at 1,000 g for 30 seconds. The two resulting phases are separated for a concentration determination by spectrophotometry on each. For the free hydroxypyridones, the range 220-240 nm is used for concentration determinations whilst for the iron complexes, the range 340-360 nm is used.

Human transferrin = target: T2, Human transferrin (Homo sapiens, UniProt P02787); test: Mobilisation of iron from 59Fe-loaded transferrin; type: biochemical; conditions: 59Fe transferrin 10^-5 M, compound 4 x 10^-3 M in tris HCl (0.1 M, pH 7.4); for Percentage of iron removed 4 hours: incubation 4 hours; for Percentage of iron removed 18 hours: incubation 18 hours
T2 construct: purchased Sigma
Protocol: Human transferrin (Sigma) was loaded with iron (III) by the method of Bates and Schlaback. J. Biol. Chem. (1973) 248, 3228. ^59Iron (III) transferrin (10^-5 M) was incubated with a 4 x 10^-3 M solution in tris HCl (0.1 M, pH 7.4) of one of various pyridones as indicated in Table 3 for periods of 4 hours and 18 hours. The solution was then dialysed against phosphate buffered saline for 24 hours. The ^59Fe remaining in the dialysis tube was then recorded. For comparative purposes, this procedure was repeated with desferrioxamine using incubation for both 4 hours and 18 hours and with EDTA using incubation for 4 hours only.
The results are shown in Table 3 in terms of the percentage of transferrin bound iron removed by the compound under test. It will be seen that the pyrid-4-one compounds are very effective at iron removal, as compared with desferrioxamine or EDTA, after only 4 hours.

Horse spleen ferritin [4] = target: T1, Horse spleen ferritin; conditions: cited from earlier work

T2 sequence (P02787 20-698): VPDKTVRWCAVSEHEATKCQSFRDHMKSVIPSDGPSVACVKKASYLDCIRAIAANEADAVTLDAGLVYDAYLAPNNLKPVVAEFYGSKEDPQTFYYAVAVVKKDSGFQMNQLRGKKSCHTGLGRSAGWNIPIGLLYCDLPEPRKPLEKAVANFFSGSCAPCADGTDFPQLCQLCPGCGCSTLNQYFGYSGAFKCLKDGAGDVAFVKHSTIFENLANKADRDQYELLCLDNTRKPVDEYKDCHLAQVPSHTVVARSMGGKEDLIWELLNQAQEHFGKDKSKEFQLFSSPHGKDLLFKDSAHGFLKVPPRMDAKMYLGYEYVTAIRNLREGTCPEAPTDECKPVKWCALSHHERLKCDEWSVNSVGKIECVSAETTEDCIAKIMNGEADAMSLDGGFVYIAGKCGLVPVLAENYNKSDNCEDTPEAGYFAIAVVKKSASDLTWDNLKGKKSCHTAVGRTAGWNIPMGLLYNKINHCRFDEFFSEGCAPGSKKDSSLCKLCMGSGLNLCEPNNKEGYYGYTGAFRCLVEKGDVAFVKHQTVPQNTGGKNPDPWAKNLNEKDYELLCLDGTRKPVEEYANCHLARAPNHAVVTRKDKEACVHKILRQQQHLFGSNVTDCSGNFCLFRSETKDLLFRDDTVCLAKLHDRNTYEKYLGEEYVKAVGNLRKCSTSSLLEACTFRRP
T1 sequence (P02791 2-175 limits assumed): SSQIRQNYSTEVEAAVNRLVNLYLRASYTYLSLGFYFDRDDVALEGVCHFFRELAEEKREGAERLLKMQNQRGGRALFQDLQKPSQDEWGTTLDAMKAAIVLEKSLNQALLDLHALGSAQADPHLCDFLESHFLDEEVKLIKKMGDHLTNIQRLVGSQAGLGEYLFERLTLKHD
T1 sequence (Q8MIP0 whole entry): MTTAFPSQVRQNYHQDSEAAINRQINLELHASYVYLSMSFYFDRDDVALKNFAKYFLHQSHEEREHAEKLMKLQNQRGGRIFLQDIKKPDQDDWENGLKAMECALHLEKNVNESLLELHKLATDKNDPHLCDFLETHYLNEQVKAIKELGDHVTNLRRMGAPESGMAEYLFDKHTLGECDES

Percentage of iron removed 6 hours (Horse spleen ferritin [1])	Percentage of iron removed 24 hours (Horse spleen ferritin [1])	Percentage of iron removed 4 hours (Human transferrin)	Percentage of iron removed 18 hours (Human transferrin)	Structure (SMILES)	log Ksol [2]	Excretion of ^59Fe±SD percent (Mice; Intraperitoneal Administration)	other results
22%	45%	–	–	COC(=O)CCn1ccc(=O)c(O)c1C [3-hydroxy-1-(2'-methoxycarbonylethyl)-2-methylpyrid-4-one]	–	–	–
–	–	–	–	Cc1c(O)c(=O)ccn1C [1,2-dimethyl-3-hydroxypyrid-4-one]	9.5	–	–
–	–	–	–	O=C(O)CN(CCN(CC(=O)O)CC(=O)O)CCN(CC(=O)O)CC(=O)O [DTPA, diethylenetriamine penta-acetic acid]	2.0	–	–
–	–	–	–	Cc1c(O)c(=O)ccn1CCCCCO [3-hydroxy-1-(5'-hydroxypentyl)-2-methylpyrid-4-one]	–	149 ± 59%	Excretion of ^59Fe±SD percent (Mice; Intragastric Administration): 111 ± 22%
25%	49%	93%	97%	Cn1cc(O)c(=O)cc1CO [3-hydroxy-6-hydroxymethyl-1-methylpyrid-4-one]	–	–	logD [3]: -1.52
–	–	–	–	O=C(NCCCCN(CCCNC(=O)c1cc(S(=O)(=O)O)cc(O)c1O)C(=O)c1cc(S(=O)(=O)O)cc(O)c1O)c1cc(S(=O)(=O)O)cc(O)c1O [LICAMS]	–	–	Percentage of iron removed 6 hours (Horse spleen ferritin [4]; 6 mM LICAMS + 12 mM ascorbic acid, literature (Tufano et al.)): 7%; Percentage of iron removed 6 hours (Horse spleen ferritin [4]; 6 mM LICAMS, literature (Tufano et al.)): 0%
31%	49%	94%	96%	Cc1c(O)c(=O)ccn1CCO [3-hydroxy-1-(2'-hydroxyethyl)-2-methylpyrid-4-one]	–	170 ± 49%	–
–	–	17%	22%	CC(=O)N(O)CCCCCNC(=O)CCC(=O)N(O)CCCCCNC(=O)CCC(=O)N(O)CCCCCN [Desferrioxamine, reference compound]	6.0	414 ± 100%	Percentage of iron removed 6 hours (Horse spleen ferritin [4]; 1 mM desferrioxamine, literature (Crichton et al.)): 1.5%; Excretion of ^59Fe±SD percent (Mice; Intragastric Administration): 88 ± 17%

Structure (SMILES)	Percentage of iron removed 6 hours (Horse spleen ferritin [1])	Percentage of iron removed 24 hours (Horse spleen ferritin [1])	Percentage of iron removed 4 hours (Human transferrin)	Percentage of iron removed 18 hours (Human transferrin)	log Ksol [2]	Excretion of ^59Fe±SD percent (Mice; Intraperitoneal Administration)	other results
O=C(O)CN(CCN(CC(=O)O)CC(=O)O)CC(=O)O [EDTA, ethylenediamine tetra-acetic acid, reference compound]	–	–	27%	67%	–	–	–
